Data on 6 compounds can be found in US10253081B2, “Glucagon analogues” (Zealand Pharma A/S, priority 2012, dated 2019).

Each structure is given as a SMILES string. Read-outs that look alike come from different tables or passages of the source. *1 amine or outer side, *2 acyl side, *3 side chain or, on linkers, in order; H or OH if unused. Where a SMILES comes first, the peptide text is derived from it. Side-chain parts run from the residue outwards. [ ]: non-standard residue; d: D form. The star is where a group is joined. γGlu = O=C(O)[C@H](CCC(=O)[*:2])N[*:1]; Palmitoyl = CCCCCCCCCCCCCCCC(=O)*; Aib = CC(C)(N)C(=O)O

Series [1] deals with T1, endogenous glucagon receptor (Rattus norvegicus, UniProt P30082).
T1 construct: Agonistic activity of the test compounds on endogenous glucagon receptor; endogenous in cells; host or cells: primary rat hepatocytes
T1 sequence (P30082 27-485): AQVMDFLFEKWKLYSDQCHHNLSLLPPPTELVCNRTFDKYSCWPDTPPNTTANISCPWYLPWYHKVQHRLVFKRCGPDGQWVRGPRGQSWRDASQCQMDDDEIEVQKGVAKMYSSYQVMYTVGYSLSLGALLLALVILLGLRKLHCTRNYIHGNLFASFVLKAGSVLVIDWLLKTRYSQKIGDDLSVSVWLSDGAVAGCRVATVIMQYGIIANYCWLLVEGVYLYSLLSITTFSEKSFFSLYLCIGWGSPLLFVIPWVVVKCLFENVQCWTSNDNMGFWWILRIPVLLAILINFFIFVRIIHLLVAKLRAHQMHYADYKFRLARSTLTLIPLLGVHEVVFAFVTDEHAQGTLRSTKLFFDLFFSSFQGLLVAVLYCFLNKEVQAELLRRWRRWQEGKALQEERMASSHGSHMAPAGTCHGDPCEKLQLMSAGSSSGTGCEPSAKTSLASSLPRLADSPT
The series can be described thus: Agonistic activity on endogenous glucagon receptor (glycogen synthesis rate in primary rat hepatocytes). The class given is cell-based. Conditions: inhibition of glycogen synthesis rate, 3 hours, read-out: EC50 GLP-1R Rat hepat. The essentials:
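Primary rat hepatocytes (40,000 cells/well, cultured 24 h) incubated 3 h with compound in KRBH buffer with 0.1% BSA, 22.5 mM glucose and D-[U14C]glucose. 14C incorporated into precipitated glycogen counted, background-subtracted and expressed as % of 0.1% DMSO vehicle (100% CTL). pEC50 from cpm versus log concentration; agonism lowers glycogen synthesis.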

Series [2] in a line: Pharmacokinetic parameters after subcutaneous and intravenous administration to mice. To be noted: male, mouse, plasma, 20 nmol/kg, C57Bl/6J mice; for half-life: read-out: Terminal half life (converted); for MRT: read-out: Mean Residence Time. It is filed as in vivo. The method, then: Pharmacokinetic parameters of the test compounds were determined after subcutaneous and intravenous administration to C57Bl/6J mice.
8 week old male C57Bl/6J mice were obtained from Taconic (Denmark) weighing approximately 20-25 g at time of arrival at the test facility. The mice were caged in European standard cages type III with light cycle of 12-hour dark and 12-hour light (lights on 06.00). Both diet, Altromin 1324 (Altromin, Germany), and water was administered ad libitum during the whole experimental period. The 8-11 week animals were imported to the laboratory at least 7 days before the start up of the experimental procedure in order to assure proper acclimatization. After sampling the mice were euthanized by cervical dislocation.
The compounds were first dissolved in 0.096% aqueous ammonia to a nominal concentration of 2 mg/ml, and then diluted to the desired dosing strength (4 μM) in sterile PBS containing 25 mM phosphate buffer, pH 7.4. Subcutaneous and intravenous injections corresponding to 20 nmol/kg were given. The GLP-1-glucagon dual agonists were administered for subcutaneous dosing in the neck region and via a lateral tail vein for intravenous dosing.
Blood samples (250 μl) were collected from the periorbital plexus at time points 0.5, 2, 4, 6, 12, 16, 20, 24 h for subcutaneous and 10, 30 min, 3, 6, 12, 18, 24 h for intravenous administration into ice-chilled K3EDTA tubes and centrifuged for 5 minutes at 4° C. within 20 minutes of sampling. Plasma (>100 μl) was separated to ice-chilled Micronic tubes, immediately frozen, and kept at −70° C. until analysed for plasma concentration for the respective GLP-1-glucagon compound using LC-MS/MS. Individual plasma concentration-time profiles were analysed by a non-compartmental approach in WinNonLin v6.3 (Pharsight inc, Mountain View, Calif., USA), and the resulting pharmacokinetic parameters determined.

As for `CCCCCCCCCCCCCCCC(=O)N[C@@H](CCC(=O)NCCCC[C@H](NC(=O)[C@H](CO)NC(=O)[C@H](CC(=O)O)NC(=O)[C@H](CC(C)C)NC(=O)[C@H](Cc1ccc(O)cc1)NC(=O)[C@H](CCCCN)NC(=O)[C@H](CO)NC(=O)[C@H](Cc1ccc(O)cc1)NC(=O)[C@H](CC(=O)O)NC(=O)[C@H](CO)NC(=O)[C@@H](NC(=O)[C@H](Cc1ccccc1)NC(=O)[C@@H](NC(=O)CNC(=O)[C@H](CCC(N)=O)NC(=O)[C@H](CO)NC(=O)[C@@H](N)Cc1c[nH]cn1)[C@@H](C)O)[C@@H](C)O)C(=O)N[C@@H](C)C(=O)N[C@@H](C)C(=O)N[C@@H](Cc1c[nH]cn1)C(=O)N[C@@H](CC(=O)O)C(=O)N[C@@H](Cc1ccccc1)C(=O)N[C@H](C(=O)N[C@@H](CCC(=O)O)C(=O)N[C@@H](Cc1c[nH]c2ccccc12)C(=O)N[C@@H](CC(C)C)C(=O)N[C@@H](CC(C)C)C(=O)N[C@@H](CCCNC(=N)N)C(=O)N[C@@H](C)C(=O)O)C(C)C)C(=O)O` [Compound 3, H-HSQGTFTSDYSKYLDS-K(Hexadecanoyl-isoGlu)-AAHDFVEWLLRA-OH] (H-HSQGTFTSDYSKYLDSK([γGlu-Palmitoyl])AAHDFVEWLLRA-OH), the EC50 in series [1] was determined as 0.16 nM. In series [2] (IV), the clearance was 0.192 mL/min/kg and the half-life was 246 min. In series [2] (SC), the Tmax was 6 h, the bioavailability is 52%, the MRT was 9.8 h and the half-life was 234 min.

Consider `CCCCCCCCCCCCCCCC(=O)N[C@@H](CCC(=O)NCCCC[C@H](NC(=O)[C@H](CCC(=O)O)NC(=O)[C@H](CC(=O)O)NC(=O)[C@H](CC(C)C)NC(=O)[C@H](Cc1ccc(O)cc1)NC(=O)[C@H](CCCCN)NC(=O)[C@H](CO)NC(=O)[C@H](Cc1ccc(O)cc1)NC(=O)[C@H](CC(=O)O)NC(=O)[C@H](CO)NC(=O)[C@@H](NC(=O)[C@H](Cc1ccccc1)NC(=O)[C@@H](NC(=O)CNC(=O)[C@H](CCC(N)=O)NC(=O)[C@H](CO)NC(=O)[C@@H](N)Cc1c[nH]cn1)[C@@H](C)O)[C@@H](C)O)C(=O)N[C@@H](C)C(=O)N[C@@H](C)C(=O)N[C@@H](Cc1c[nH]cn1)C(=O)N[C@@H](CCC(=O)O)C(=O)N[C@@H](Cc1ccccc1)C(=O)N[C@H](C(=O)N[C@@H](CCC(=O)O)C(=O)N[C@@H](Cc1c[nH]c2ccccc12)C(=O)N[C@@H](CC(C)C)C(=O)N[C@@H](CCC(=O)O)C(=O)N[C@@H](CO)C(=O)N[C@@H](C)C(N)=O)C(C)C)C(=O)O` [Compound 10, H-HSQGTFTSDYSKYLDE-K(Hexadecanoyl-isoGlu)-AAHEFVEWLESA-NH2] (H-HSQGTFTSDYSKYLDEK([γGlu-Palmitoyl])AAHEFVEWLESA-NH2), for which, in series [1], the EC50 stood at 0.04 nM. Besides, in series [2] (IV), the clearance was 0.355 mL/min/kg and the half-life was 180 min. Besides, in series [2] (SC), the Tmax was found to be 2 h, the bioavailability was determined as 80%, the MRT turned out to be 6.5 h and the half-life was 222 min.

Consider `CCCCCCCCCCCCCCCC(=O)N[C@@H](CCC(=O)NCCCC[C@H](NC(=O)[C@H](CO)NC(=O)[C@H](CC(=O)O)NC(=O)[C@H](CC(C)C)NC(=O)[C@H](Cc1ccc(O)cc1)NC(=O)[C@H](CCCCN)NC(=O)[C@H](CO)NC(=O)[C@H](Cc1ccc(O)cc1)NC(=O)[C@H](CC(=O)O)NC(=O)[C@H](CO)NC(=O)[C@@H](NC(=O)[C@H](Cc1ccccc1)NC(=O)[C@@H](NC(=O)CNC(=O)[C@H](CCC(N)=O)NC(=O)[C@H](CO)NC(=O)[C@@H](N)Cc1c[nH]cn1)[C@@H](C)O)[C@@H](C)O)C(=O)N[C@@H](C)C(=O)N[C@@H](C)C(=O)N[C@@H](Cc1c[nH]cn1)C(=O)N[C@@H](CC(=O)O)C(=O)N[C@@H](Cc1ccccc1)C(=O)N[C@H](C(=O)N[C@@H](CCC(=O)O)C(=O)N[C@@H](Cc1c[nH]c2ccccc12)C(=O)N[C@@H](CC(C)C)C(=O)N[C@@H](CC(C)C)C(=O)N[C@@H](CO)C(N)=O)C(C)C)C(=O)O` [Compound 8, H-HSQGTFTSDYSKYLDS-K(Hexadecanoyl-isoGlu)-AAHDFVEWLLS-NH2] (H-HSQGTFTSDYSKYLDSK([γGlu-Palmitoyl])AAHDFVEWLLS-NH2), for which the EC50 in series [1] amounted to 1.1 nM. Besides, in series [2] (IV), the clearance is 0.128 mL/min/kg and the half-life was 234 min. In series [2] (SC), the time to peak (Tmax) turned out to be 4 h, the bioavailability was determined as 42%, the MRT is 8.1 h and the half-life is 246 min.

In the case of `CCCCCCCCCCCCCCCC(=O)N[C@@H](CCC(=O)NCCCC[C@H](NC(=O)[C@H](CO)NC(=O)[C@H](CC(=O)O)NC(=O)[C@H](CC(C)C)NC(=O)[C@H](Cc1ccc(O)cc1)NC(=O)[C@H](CCCCN)NC(=O)[C@H](CO)NC(=O)[C@H](Cc1ccc(O)cc1)NC(=O)[C@H](CC(=O)O)NC(=O)[C@H](CO)NC(=O)[C@@H](NC(=O)[C@H](Cc1ccccc1)NC(=O)[C@@H](NC(=O)CNC(=O)[C@H](CCC(N)=O)NC(=O)C(C)(C)NC(=O)[C@@H](N)Cc1c[nH]cn1)[C@@H](C)O)[C@@H](C)O)C(=O)N[C@@H](C)C(=O)N[C@@H](C)C(=O)N[C@@H](Cc1c[nH]cn1)C(=O)N[C@@H](CC(=O)O)C(=O)N[C@@H](Cc1ccccc1)C(=O)N[C@H](C(=O)N[C@@H](CCC(=O)O)C(=O)N[C@@H](Cc1c[nH]c2ccccc12)C(=O)N[C@@H](CC(C)C)C(=O)N[C@@H](CCC(=O)O)C(=O)N[C@@H](CO)C(=O)N[C@@H](C)C(N)=O)C(C)C)C(=O)O` [Compound 5, H-H-Aib-QGTFTSDYSKYLDS-K(Hexadecanoyl-isoGlu)-AAHDFVEWLESA-NH2] (H-H[Aib]QGTFTSDYSKYLDSK([γGlu-Palmitoyl])AAHDFVEWLESA-NH2), the EC50 in series [1] is 0.03 nM. Moreover, in series [2] (IV), the clearance is 0.185 mL/min/kg and the half-life is 240 min. For the same compound, in series [2] (SC), the time to peak (Tmax) was 4 h, the bioavailability was 81%, the MRT is 7.6 h and the half-life is 228 min.

`CCCCCCCCCCCCCCCC(=O)N[C@@H](CCC(=O)NCCCC[C@H](NC(=O)[C@H](CO)NC(=O)[C@H](CC(=O)O)NC(=O)[C@H](CC(C)C)NC(=O)[C@H](Cc1ccc(O)cc1)NC(=O)[C@H](CCCNC(=N)N)NC(=O)[C@H](CO)NC(=O)[C@H](Cc1ccc(O)cc1)NC(=O)[C@H](CC(=O)O)NC(=O)[C@H](CO)NC(=O)[C@@H](NC(=O)[C@H](Cc1ccccc1)NC(=O)[C@@H](NC(=O)CNC(=O)[C@H](CCC(N)=O)NC(=O)[C@H](CO)NC(=O)[C@@H](N)Cc1c[nH]cn1)[C@@H](C)O)[C@@H](C)O)C(=O)N[C@@H](C)C(=O)N[C@@H](C)C(=O)N[C@@H](Cc1c[nH]cn1)C(=O)N[C@@H](CC(=O)O)C(=O)N[C@@H](Cc1ccccc1)C(=O)N[C@H](C(=O)N[C@@H](CCC(=O)O)C(=O)N[C@@H](Cc1c[nH]c2ccccc12)C(=O)N[C@@H](CC(C)C)C(=O)N[C@@H](CC(C)C)C(=O)N[C@@H](CO)C(=O)N[C@@H](C)C(N)=O)C(C)C)C(=O)O` [Compound 12, H-HSQGTFTSDYSRYLDS-K(Hexadecanoyl-isoGlu)-AAHDFVEWLLSA-NH2] (H-HSQGTFTSDYSRYLDSK([γGlu-Palmitoyl])AAHDFVEWLLSA-NH2): the concentration for a half-maximal effect (EC50) in series [1] worked out at 0.24 nM. Further, in series [2] (IV), the clearance was 0.225 mL/min/kg and the half-life was 246 min. Moreover, in series [2] (SC), the Tmax amounted to 6 h, the bioavailability turned out to be 43%, the MRT is 8.3 h and the half-life is 258 min.

As to `CCCCCCCCCCCCCCCC(=O)N[C@@H](CCC(=O)NCCCC[C@H](NC(=O)[C@H](CO)NC(=O)[C@H](CC(=O)O)NC(=O)[C@H](CC(C)C)NC(=O)[C@H](Cc1ccc(O)cc1)NC(=O)[C@H](CCCCN)NC(=O)[C@H](CO)NC(=O)[C@H](Cc1ccc(O)cc1)NC(=O)[C@H](CC(=O)O)NC(=O)[C@H](CO)NC(=O)[C@@H](NC(=O)[C@H](Cc1ccccc1)NC(=O)[C@@H](NC(=O)CNC(=O)[C@H](CCC(N)=O)NC(=O)C(C)(C)NC(=O)[C@@H](N)Cc1c[nH]cn1)[C@@H](C)O)[C@@H](C)O)C(=O)N[C@@H](C)C(=O)N[C@@H](C)C(=O)N[C@@H](Cc1c[nH]cn1)C(=O)N[C@@H](CC(=O)O)C(=O)N[C@@H](Cc1ccccc1)C(=O)N[C@H](C(=O)N[C@@H](CCC(=O)O)C(=O)N[C@@H](Cc1c[nH]c2ccccc12)C(=O)N[C@@H](CC(C)C)C(=O)N[C@@H](CC(C)C)C(=O)N[C@@H](CO)C(=O)N[C@@H](C)C(=O)O)C(C)C)C(=O)O` [Compound 13, H-H-Aib-QGTFTSDYSKYLDS-K(Hexadecanoyl-isoGlu)-AAHDFVEWLLSA-OH], the 50% effective concentration (EC50) in series [1] worked out at 0.67 nM. Further, in series [2] (IV), the clearance was 0.148 mL/min/kg and the half-life was 378 min. In series [2] (SC), the Tmax is 4 h, the bioavailability worked out at 76%, the MRT was 14.7 h and the half-life is 516 min.

What is called EC50 is the concentration needed to bring the measured effect to its halfway point. A word on the half-life: it is the time in which the quantity being followed falls by half. What is called Tmax is the time at which the peak concentration occurs. A word on the bioavailability: it is dose-corrected exposure relative to a reference, in per cent. Read a low bioavailability as poor availability.
